Reference: patent US20250003952A1, “SENOLYTIC DRUG SCREENING METHOD AND SENOLYTIC DRUG” (KYOTO UNIVERSITY, priority 2021, published 2025)

Assays:
[1] = test system: mice models; details: Chang et al., 2016, Childs et al.; cited from earlier work
[2] = test system: PGAM-Chk1 kinase binding; details: cancer cells; Mikawa et al., 2020; cited from earlier work
[3] = test system: Chk1 kinase; assay: S280 phosphorylation of Chk1 kinase by Western blot in H1299 cells; type: cell-based; details: 10 μM for 48 hours
Experimental: When each inhibitor (U126 and BI-D1870) was administered to cancer cells, PGAM-Chk1 kinase binding was inhibited, and glycolytic metabolism decreased (Mikawa et al., 2020). RSK kinase was already known to directly control the phosphorylation of the S280 residue of Chk1 kinase (Li et al., 2012, Mol Biol Cell 23, 1582-1592). […] Specifically, cancer cell line H1299 cells were treated with the MEK kinase inhibitor (U126) at a concentration of 10 μM for 48 hours. The treated cells were collected, and proteins were extracted and then Western blotted. It was confirmed that the S280 phosphorylation of Chk1 kinase was suppressed although the protein level of Chk1 kinase was not changed. In addition, the present inventors prepared S280A mutants of Chk1 kinase. […] Specifically, PGAM and Chk1 kinase genes tagged with Nano-Bit tags were introduced into IMR90 cells to prepare a cell line capable of stable expression. At this time, three types of Chk1, i.e., wild-type Chk1 and S280A mutant Chk1 or S280D mutant Chk1, were each introduced into the cells. An oncogenic mutated Ras gene was introduced into these cells by retroviral infection to acquire stress senescent cells. The obtained senescent cells were used to measure intracellular luciferase luminescence signals by Nano-Bit for each.

[4] = test system: IMR90 cells; assay: Senolysis / cell death of young and Ras-induced senescent IMR90 cells; type: cell-based, human
From the text: Ras gene with oncogenic mutation was introduced into young cells (within 1 month of continuous culture) of IMR90 cells by retroviral infection to acquire senescent cells. […] The control received only DMSO treatment. Representative images of cells observed under a microscope are shown (FIG. 11).
An oncogenic mutated Ras gene was introduced into young cells (within 1 month of continuous culture) of IMR90 cells by retroviral infection to acquire stress-induced senescent cells. The young cells and the senescent cells were both treated with different concentrations of the RSK kinase inhibitor BI-D1870 for 96 hours to evaluate cell death.
An oncogenic mutated Ras gene was introduced into young cells (within 1 month of continuous culture) of IMR90 cells by retroviral infection to acquire stress-induced senescent cells. The young cells and the senescent cells of IMR90 were both transfected with an RSK1 siRNA (two types of siRNA #1 (SEQ ID NO: 7) or #2 (SEQ ID NO: 8) having different target sequences) or a control to knock down RSK1. Representative images of cells observed under a microscope are shown (upper diagram in FIG. 20).
An oncogenic Ras was introduced into young cells (within 1 month of continuous culture) of IMR90 cells to induce senescent cells (OIS). The young cells and the senescent cells of IMR90 were transfected with two HIF-2α-specific siRNAs (SEQ ID NO: 9 and SEQ ID NO: 10) having different target sequences to knock down HIF-2α.
An oncogenic Ras was introduced into young cells (within 1 month of continuous culture) of IMR90 cells to induce senescent cells (OIS). The young cells and the senescent cells of IMR90 were transfected with a BIM-specific siRNA to knock down BIM.
An oncogenic Ras was introduced into young cells (within 1 month of continuous culture) of IMR90 cells to induce senescent cells (OIS). In the young cells and the senescent cells of IMR90, HIF-2α alone or both HIF-2α and BIM were knocked down by using their respective specific siRNAs (SEQ ID NO: 9, SEQ ID NO: 10), and cell death was confirmed (FIG. 28).
The latter information consists of 12,655 ChIP datasets from 903 antigens (transcription factors and epigenetic regulators).

[5] = biological target: T1, PGAM-Chk1 binding (Homo sapiens, UniProt O14757+P18669); assay: PGAM-Chk1 binding by anti-Chk1 immunoprecipitation and anti-PGAM Western blotting in Ras-induced senescent IMR90 cells; type: cell-based
T1 construct: endogenous in cells; host or cells: IMR90 human primary fibroblasts made senescent by retroviral oncogenic Ras
T1 sequence (P18669 2-254 limits assumed): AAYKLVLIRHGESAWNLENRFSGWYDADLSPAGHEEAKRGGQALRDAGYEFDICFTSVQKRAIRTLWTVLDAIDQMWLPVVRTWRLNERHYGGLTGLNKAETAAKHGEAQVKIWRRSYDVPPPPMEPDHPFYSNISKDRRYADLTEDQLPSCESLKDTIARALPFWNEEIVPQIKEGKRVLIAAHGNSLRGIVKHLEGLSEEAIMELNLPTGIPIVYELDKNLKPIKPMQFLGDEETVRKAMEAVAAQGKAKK
T1 sequence (O14757 1-476): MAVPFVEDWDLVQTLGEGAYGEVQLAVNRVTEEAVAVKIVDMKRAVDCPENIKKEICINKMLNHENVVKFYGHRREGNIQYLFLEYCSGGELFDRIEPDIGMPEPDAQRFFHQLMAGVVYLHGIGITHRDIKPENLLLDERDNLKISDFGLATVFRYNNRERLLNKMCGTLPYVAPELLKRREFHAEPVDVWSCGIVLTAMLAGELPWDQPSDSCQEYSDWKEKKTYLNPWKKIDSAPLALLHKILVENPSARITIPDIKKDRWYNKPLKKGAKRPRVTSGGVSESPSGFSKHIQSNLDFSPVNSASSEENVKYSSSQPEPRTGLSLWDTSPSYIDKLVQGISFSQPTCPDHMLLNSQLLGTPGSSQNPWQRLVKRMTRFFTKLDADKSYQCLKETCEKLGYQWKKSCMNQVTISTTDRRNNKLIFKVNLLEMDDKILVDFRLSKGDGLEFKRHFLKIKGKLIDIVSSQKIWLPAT
Experimental: Human primary fibroblasts, IMR90 cells, were obtained from the JCRB Cell Bank. An oncogenic Ras mutation was retrovirally introduced into young cells (within 1 month of continuous culture) of the IMR90 cells to induce cellular senescence. […] After that, these cells were treated with MG132 for 6 hours, and cell lysates were prepared. The obtained cell lysates were immunoprecipitated with an anti-Chk1 antibody. The resulting immunoprecipitate was used for Western blotting with an anti-PGAM antibody to evaluate PGAM-Chk1 binding.
Next, in the same manner as above, IMR90 cells were used to prepare stress-induced senescent cells by introducing an oncogenic mutated Ras gene. The senescent cells were transfected with an RSK1 siRNA (SEQ ID NO: 7) or a control to knock down RSK1. The resulting cells were collected, and proteins were extracted. The resulting protein extract was immunoprecipitated with an anti-Chk1 antibody. The resulting immunoprecipitate was used for Western blotting with an anti-PGAM antibody to evaluate PGAM-Chk1 binding.

[6] = biological target: T2, PGAM-Chk1 binding (Homo sapiens, UniProt O14757+P18669); assay: Nano-Bit PGAM-Chk1 binding in cancer cell line H1299; type: cell-based; details: H1299 cells; 40 μM for 12, 24, and 48 hours
T2 construct: expressed in transfected cells
From the text: PGAM and Chk1 kinase genes tagged with Nano-Bit tags were introduced into the cancer cell line H1299 to prepare a cell line capable of stable expression. […] The treated cells were used to measure intracellular luciferase luminescence signals by Nano-Bit for each.
T2 sequence (P18669 whole entry, one chain of several): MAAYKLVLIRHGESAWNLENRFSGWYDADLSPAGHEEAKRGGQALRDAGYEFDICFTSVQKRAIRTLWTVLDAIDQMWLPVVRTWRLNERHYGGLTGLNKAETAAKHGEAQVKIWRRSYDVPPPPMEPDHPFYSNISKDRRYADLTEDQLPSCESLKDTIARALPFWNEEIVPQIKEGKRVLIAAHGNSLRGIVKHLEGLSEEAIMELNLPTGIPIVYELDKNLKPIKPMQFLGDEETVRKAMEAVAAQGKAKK

[7] = test system: glycolytic metabolism; assay: Glycolytic metabolism (glucose consumption, lactate production) in etoposide-induced senescent IMR90 cells; type: cell-based, human; details: 20 μM or 40 μM for 48 hours
Experimental: Next, young cells (within 1 month of continuous culture) of the IMR90 cells were treated with 100 μM etoposide for 48 hours to acquire senescent cells. […] After the nutlin treatment, the medium was collected, and glucose consumption was evaluated and lactate production was measured. The lactate level is calculated as a value (μmol/mg/h) obtained by measuring the amount of lactate secreted into the medium per hour (μmol/h) and correcting the same by the total cell protein (mg) and is expressed as a value relative to the actual value on day 0. The glucose consumption is calculated as a value (μmol/mg/h) obtained by measuring the amount of glucose decreased from the medium per hour (μmol/h) and correcting the same by the total cell protein (mg) and is expressed as a value relative to the actual value on day 0. Glucose and lactate were measured by using a Glucose assay kit (BioVision) (upper diagram in FIG. 8) and a Lactate assay kit (BioVision) (lower diagram in FIG. 8), respectively.

[8] = test system: p53; assay: p53 activation (Western blot of p53 and p21) in young IMR90 cells; type: cell-based, human; details: 20 μM for 48 hours
From the text: After the treatment, proteins were extracted from the cells to carry out Western blotted.

[9] = test system: BIM gene; assay: BIM gene expression in Ras-induced senescent IMR90 cells; type: cell-based, human; details: senescent (OIS) IMR90 cells; HIF-2α knockdown by siRNA
Experimental: An oncogenic Ras was introduced into young cells (within 1 month of continuous culture) of IMR90 cells to induce senescent cells (OIS).
An oncogenic Ras was introduced into young cells (within 1 month of continuous culture) of IMR90 cells to induce senescent cells (OIS). The senescent cells were transfected with an HIF-2α-specific siRNA (SEQ ID NO: 9) to knock down HIF-2α. After that, the expression of the BIM gene, which is an apoptosis-inducing gene, was analyzed (FIG. 26).

[10] = test system: Chk1 kinase; assay: S280 phosphorylation of Chk1 kinase after RSK1 knockdown in senescent IMR90 cells; type: cell-based, human; details: Ras-induced senescent IMR90 cells; RSK1 knockdown by siRNA

In the case of CC1(C)CCC(c2ccc(Cl)cc2)=C(CN2CCN(c3ccc(C(=O)NS(=O)(=O)c4ccc(N[C@H](CCN5CCOCC5)CSc5ccccc5)c(S(=O)(=O)C(F)(F)F)c4)cc3)CC2)C1 [ABT263], the “aging-relevant dysfunctions and artherosclerosis” value [1] is given as “alleviated”.

For N#CC(=C(/N)Sc1ccccc1N)/C(C#N)=C(/N)Sc1ccccc1N [U126], the PGAM-Chk1 kinase binding [2] is given as “inhibited”, the glycolytic metabolism [2] is given as “decreased” and the “S280 phosphorylation of Chk1 kinase” value [3] is given as “suppressed”. The “protein level of Chk1 kinase” value [3] was “not changed”.

With COc1ccc(C2=N[C@@H](c3ccc(Cl)cc3)[C@@H](c3ccc(Cl)cc3)N2C(=O)N2CCNC(=O)C2)c(OC(C)C)c1 [nutlin 3a] the “cell death observed under a microscope” value ([4]; young and Ras-induced senescent IMR90 cells, 40 μM for 72 hours) was “cell death and cell number decrease were observed in both the young cells and the senescent cells”, the “PGAM-Chk1 binding (interaction)” value ([5]; 20 μM or 40 μM for 48 hours, then MG132 6 hours) was “inhibit PGAM-Chk1 interaction to the same extent” and the “luciferase luminescence signal by Nano-Bit (PGAM-Chk1 binding)” value [6] was “treatment time-dependent decrease”. For the same molecule, the glucose consumption [7] was “suppressed in a dose-dependent manner”, the lactate production [7] was “suppressed in a dose-dependent manner” and the “protein level of p21” value [8] was “markedly increased”. For the same molecule, the “protein level of p53” value [8] was “markedly increased”.

In the case of “HIF-2α-specific siRNA (SEQ ID NO: 9): HIF-2α-specific siRNA, SEQ ID NO: 9 (CACCUACUGUGAUGACAGA; listed as RNA, chemistry not given here)”, the “cell death after HIF-2α knockdown” value ([4]; young and Ras-induced senescent (OIS) IMR90 cells, siRNA transfection) is reported as “selective cell death (senolysis)” and the “expression of the apoptosis-inducing gene BIM” value [9] is reported as “increased”.

With “RSK1 siRNA #1: RSK1 siRNA including the sequence of SEQ ID NO: 7 (CACUGAUUCUGAAGGCGAA; listed as RNA, chemistry not given here)” the “senolysis phenomenon with knockdown of RSK1” value ([4]; young and Ras-induced senescent IMR90 cells, siRNA transfection) was “young cells are normal, but senescent cells selectively die”, the PGAM-Chk1 binding ([5]; RSK1 knockdown by siRNA) was “inhibition of PGAM-Chk1” and the “S280 phosphorylation of Chk1 kinase” value [10] was “decreased”.
